Entries after “also recorded” stand apart in the source; their conditions may differ. Residues, ends and D or L forms follow the SMILES beside them.
Experiments:
[1] = system: STAT, JNK and cJUN phosphorylation in HSC-4 cells; test: Western blot of HSC-4 cells treated with SSTP1 and inhibitors; type: cell-based; details: HSC-4, SSTP1 10 μM, SC144 40 μM, Anti-IL6Rα 10 μg/ml, 30 minutes
Excerpt: (§1) a. Inhibitors for IL6 (LMT-28), JAK (Ruxolitinib), gp130 (SC-144) and JNK (SP600125) as well as Anti-IL6Rα were used to check the dispensability of each of these molecules in inducing apoptosis by SSTP1. […] The SSTP1-mediated up-regulation of pJNK was not appreciably affected by either of these inhibitors, while pcJUN up-regulation was inhibited by only SP600125 (FIGS. 7a and b). […] LMT28 binds to the interface between IL6 and gp130 to block the activity of IL6. Since SSTP1 binds to a different site on the IL6/IL6Rα/gp130 complex, i.e., the interface of IL6 and IL6Rα, there is no competitive inhibition when we add LMT28. b.

[2] = system: HSC-4 cells; test: MTT assay of SSTP1-induced growth inhibition with or without inhibitors; type: cell-based; details: 4 h, SSTP1 10 μM; LMT-28 60 μM, Anti-IL6Rα 10 μg/ml, SC144 40 μM
Excerpt: as §1

[3] = system: HSC-4 cells
Protocol: Evaluation of the cytotoxicity of SSTP1 and SSTP2 was performed using MTT assay in an oral cancer cell line, HSC-4 at various concentrations of the respective peptides.

[4] = target: T1, IL6Rα (Homo sapiens, UniProt P08887); test: Co-localization of peptide and IL6Rα on cell membrane (Pearson's coefficient); type: cell-based; parameters: fixed and probed without permeabilization using mouse IL6Rα; endogenous in cells; host or cells: HSC-4; details: HSC-4, 10 μM, 30 minutes
T1 sequence (P08887 20-468): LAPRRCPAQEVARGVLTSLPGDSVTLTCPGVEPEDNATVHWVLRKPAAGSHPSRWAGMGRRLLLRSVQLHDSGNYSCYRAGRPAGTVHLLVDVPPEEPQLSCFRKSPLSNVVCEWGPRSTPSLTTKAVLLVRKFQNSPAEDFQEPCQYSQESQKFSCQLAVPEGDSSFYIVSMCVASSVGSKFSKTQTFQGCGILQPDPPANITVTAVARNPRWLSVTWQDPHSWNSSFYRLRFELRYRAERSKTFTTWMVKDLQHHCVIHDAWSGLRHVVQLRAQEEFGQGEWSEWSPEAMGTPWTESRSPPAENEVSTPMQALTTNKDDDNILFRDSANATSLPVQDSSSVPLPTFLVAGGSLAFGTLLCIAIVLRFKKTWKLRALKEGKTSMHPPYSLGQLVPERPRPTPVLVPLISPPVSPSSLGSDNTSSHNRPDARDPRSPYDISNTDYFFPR
Excerpt: To check whether SSTP1 activates the IL6/IL6R pathway by binding to IL6Rα, we checked the co-localization of SSTP1 and IL6Rα on cell membrane. […] To visualize the IL6R-dependent SSTP1 endosomal up-take, we used an early endosome marker, Rab5C. We observed the co-existence of SSTP1 and IL6Rα within early endosomes, marked by Rab5C (FIGS. 4c and d). […] The physical interaction of SSTP1 and IL6Rα was also ascertained using FRET analysis (FIG. 4f). FIG. 4 illustrates SSTP1 interacts with IL6Rα and mediates the uptake of SSTP1 specifically FIG. 4(a) discusses HSC-4 cells were treated with Biotin labelled SSTP1 or SSTP2 (10 μM) for 30 minutes and then fixed and probed without permeabilization using mouse IL6Rα. 4(b) illustrates the co-localization of SSTP1 or SSTP2 to IL6Rα was analyzed for 11 cells and the Pearson's correlation was plotted. 4(c) illustrates cells were treated as in panel (a) and fixed and permeabilized to probe for IL6Rα, SSTP1 and Rab5c. The arrow mark indicates the co-localization. The scales bars represent 4 μm. 4(d) illustrates the Mander's overlap in SSTP1 foci were quantified for 10 cells. The average values for each cell is plotted. 4(e) illustrates the pull down assay using SSTP1-biotin and probed for IL6Rα. 4(f) illustrates the FRET analysis to show the SSTP1 binding to IL6Rα.

[5] = system: six cancer cell lines of different origin; test: MTT assay in six cancer cell lines with up-regulated IL6Rα; type: cell-based; details: 10 μM SSTP1, all six cell lines
Protocol: (§2) Further, the growth inhibitory property of SSTP1 on different cell lines with different levels of IL6Rα was investigated. Six cancer cell lines of different origin were evaluated for their IL6Rα expression in comparison to HSC-4 by western blot (FIGS. 8a and b). […] Since many of the bioactive peptides induce hemolysis, we evaluated the hemolysis induced by SSTP1 (FIG. 8d).

[6] = system: human leukocytes; test: Trypan blue exclusion of leukocytes; details: 4.5 μM, 48 h
[7] = system: JAK/STAT, JNK/AP1, MAPK and AKT phosphorylation in HSC-4 cells; test: Western blot of JAK/STAT, JNK/AP1, MAPK and PI3K pathway phosphorylation; type: cell-based; details: HSC-4, 10 μM
Excerpt: a. […] The phosphorylated forms of STAT1 (Y701) and STAT3 (Y705) were probed for western blot to see the JAK/STAT pathway activation. Another phosphorylation of STAT3 at S727, which is reported to be independent of JAK activation, was also probed. […] All these biochemical analyses point out that SSTP1 preferentially down-regulates JAK-mediated-phosphorylation of STATs and MAPK, simultaneously up-regulating phosphorylation of JNK1 and cJUN. b.

[8] = target: T1, IL6Rα; test: Pull-down assay using biotin-labelled peptides; type: binding
Excerpt: To check whether SSTP1 activates the IL6/IL6R pathway by binding to IL6Rα, we checked the co-localization of SSTP1 and IL6Rα on cell membrane. […] To visualize the IL6R-dependent SSTP1 endosomal up-take, we used an early endosome marker, Rab5C. We observed the co-existence of SSTP1 and IL6Rα within early endosomes, marked by Rab5C (FIGS. 4c and d). […] The physical interaction of SSTP1 and IL6Rα was also ascertained using FRET analysis (FIG. 4f).
FIG. 4 illustrates SSTP1 interacts with IL6Rα and mediates the uptake of SSTP1 specifically FIG. 4(a) discusses HSC-4 cells were treated with Biotin labelled SSTP1 or SSTP2 (10 μM) for 30 minutes and then fixed and probed without permeabilization using mouse IL6Rα. 4(b) illustrates the co-localization of SSTP1 or SSTP2 to IL6Rα was analyzed for 11 cells and the Pearson's correlation was plotted. 4(c) illustrates cells were treated as in panel (a) and fixed and permeabilized to probe for IL6Rα, SSTP1 and Rab5c. The arrow mark indicates the co-localization. The scales bars represent 4 μm. 4(d) illustrates the Mander's overlap in SSTP1 foci were quantified for 10 cells. The average values for each cell is plotted. 4(e) illustrates the pull down assay using SSTP1-biotin and probed for IL6Rα. 4(f) illustrates the FRET analysis to show the SSTP1 binding to IL6Rα.

[9] = system: HSC-4 cells; test: Annexin/PI staining with FACS analysis; type: cell-based; details: HSC-4, 10 μM, 22 h
Protocol: To check whether the cytotoxic effect is due to apoptosis, Annexin/PI staining was performed, with the population with Annexin alone (early apoptotic), Annexin/PI dual stained (late apoptotic) and PI alone (dead cells) were quantified by FACS.

[10] = system: human RBCs; test: Hemolysis of human RBCs; details: 5 μM
Protocol: as §2

[11] = system: MDA-MB-231 cells; details: read-out: IC50 growth inhibition (MTT)
[12] = system: Caspase 3, 7, 8, 9 and PARP in HSC-4 cells; test: Western blot for caspase and PARP cleavage; type: cell-based; details: HSC-4, 10 μM
[13] = system: AP1; test: Luciferase AP1 reporter assay; type: cell-based; details: in comparison to SSTP2

O=C(NNc1nc2cc(F)ccc2n2cccc12)c1cnccn1 [SC144]
phosphorylation of STATs, JNK and cJUN [1]: significantly reduced
effect on SSTP1-induced growth inhibition [2]: significantly inhibited

CC[C@H](C)[C@H](NC(=O)[C@H](CC(C)C)NC(=O)[C@H](CC(C)C)NC(=O)[C@@H]1CCCN1C(=O)[C@H](CC(C)C)NC(=O)[C@@H](N)Cc1ccccc1)C(=O)N[C@@H](CO)C(=O)N[C@@H](C)C(=O)N[C@@H](CC(C)C)C(=O)N[C@H](C(=O)N[C@@H](CO)C(=O)N[C@@H](CC(C)C)C(=O)N[C@@H](Cc1ccccc1)C(=O)N1CCC[C@H]1C(=O)N[C@@H](CCCCN)C(=O)N[C@@H](CC(C)C)C(=O)NCC(=O)N[C@@H](CCCCN)C(N)=O)[C@@H](C)O [SSTP1, FLPLLISALTSLFPKLGK] (H-FLPLLISALTSLFPKLGK-NH2)
IC50 ([3]; read-out: IC50 growth inhibition (MTT), HSC-4 cells): 10.2 µM
co-localization to IL6Rα on cell surface [4]: several foci on the cell surface with co-localization
growth inhibitory potential compared to HSC-4 [5]: drastic increase in the growth inhibitory potential
viability of leukocytes [6]: did not affect the viability; also recorded: no adverse effect; also recorded: Illustrates SSTP1 do not induce cell death in human leukocytes
STAT1 (Y701) phosphorylation [7]: did not affect STAT1 (Y701) phosphorylation significantly
STAT3 (Y705) phosphorylation [7]: drastically reduced
pJNK2 levels [7]: up-regulated
pSTAT3(S727) [7]: slight up-regulation
pc-JUN level [7]: increased level
phosphorylation of JNK1 [7]: markedly up-regulated
physical interaction with IL6Rα (pull-down) [8]: stronger than that of SSTP2
increase in early apoptotic population [9]: 3 fold
hemolysis [10]: 0.25%
IC50 [11]: 4.5 µM
Caspase 8 cleavage [12]: unaffected
cleavage of Caspase 3, 7 and 9 [12]: active cleavage
time to PARP cleavage [12]: ≤ 16 h
AP1 activity (luciferase reporter) [13]: activated

CC[C@H](C)[C@H](NC(=O)[C@H](CCCNC(=N)N)NC(=O)[C@H](CCCNC(=N)N)NC(=O)[C@@H]1CCCN1C(=O)[C@H](CC(C)C)NC(=O)[C@@H](N)Cc1ccccc1)C(=O)N[C@@H](CO)C(=O)N[C@@H](C)C(=O)N[C@@H](CCCNC(=N)N)C(=O)N[C@H](C(=O)N[C@@H](CO)C(=O)N[C@@H](CC(C)C)C(=O)N[C@@H](Cc1ccccc1)C(=O)N1CCC[C@H]1C(=O)N[C@@H](CCCCN)C(=O)N[C@@H](CCCNC(=N)N)C(=O)NCC(=O)N[C@@H](CCCCN)C(N)=O)[C@@H](C)O [SSTP2, FLPRRISARTSLFPKRGK-NH2, reference compound] (H-FLPRRISARTSLFPKRGK-NH2)
cytotoxicity (MTT), result in words [3]: ineffective in inducing cytotoxicity
